Source: patent US20060069038A1, “Irreversible caspase-3 inhibitors as active site probes” (priority 2003, published 2006)

Target: T1, purified recombinant human caspase-3 (Homo sapiens, UniProt P42574)
T1 construct: Active site shared between large and small caspase subunit
T1 sequence (P42574 29-175 limits assumed): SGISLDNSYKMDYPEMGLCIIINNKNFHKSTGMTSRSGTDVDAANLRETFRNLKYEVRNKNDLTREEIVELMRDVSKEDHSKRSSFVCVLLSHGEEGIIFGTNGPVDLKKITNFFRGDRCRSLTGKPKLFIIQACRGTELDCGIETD
T1 sequence (P42574 176-277 limits assumed): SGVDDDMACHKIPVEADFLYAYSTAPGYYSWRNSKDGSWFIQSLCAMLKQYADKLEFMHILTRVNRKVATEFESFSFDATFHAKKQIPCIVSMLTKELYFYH
Assay: DEVD-AMC cleavage activity with recombinant human caspase-3 pre-incubated with inhibitor
Format: biochemical
Conditions: purified recombinant caspase-3 pre-incubated with increasing amounts of M791
Protocol: FIG. 3. Potency assessment caspase inhibitors by [^125]-M808 labeling and by DEVD-AMC cleavage activity. A, B-Caspase inhibitor titration and [^125]-M808 labeling with purified recombinant human caspase-3. A-M791 with 5 minute labeling reaction and M791 with 60 minute labeling reaction. In A, the indicated IC50 was defined as the concentration of M791 that reduced the intensity of [^125I]-M808-labeled p17 subunit of caspase-3 by 50%. B-Caspase inhibitor titration and DEVD-AMC cleavage activity with recombinant human caspase-3 that had been incubated with indicated concentration of M791. Under the fluorogenic assay conditions Ki=IC50/2.
Tissues (rat liver, kidney, brain, thymus, mouse thymus) were either frozen or processed within 20 minutes of their removal. Rat tissues and cultured cells were homogenized in ice cold cell lysis buffer (50 mM Tris-Cl pH 7.5, 2 mM EDTA, 1% NP-40) supplemented with 5 mM DTT and Complete protease inhibitor cocktail (Roche). Thymi from mice injected with [^125I]-M808 were homogenized in lysis buffer supplemented with 25 μM of M808. Nuclear debris was removed by centrifugation at 13000 rpm for 10 min and the soluble fraction quantitated by Bradford assay (Bio-Rad). Caspase-3 like activity was determined with the fluorogenic substrate Ac-DEVD-AMC as described by Roy et al. (2001) Proc. Nat. Acad. Sci. USA 98: 6132-6137. […]

Q: `COc1ccc(-c2nc(C)no2)cc1CC(=O)N[C@H](C(=O)N[C@@H](CC(=O)O)C(=O)CSCc1ccccc1)C(C)C` [Example M791, (3S)-5-(benzylthio)-3-[(N-{[2-methoxy-5-(3-methyl-1,2,4-oxadiazol-5-yl)phenyl]acetyl}-L-valyl)amino]4-oxopentanoic acid] was tested. Which IC50 did it give?
A: 600 pM
